Test results taken from PubChem BioAssay (NCI).
Several values for one entry are separate records, joined by “and”; a condition that tells them apart may be missing. Identical values can stand only once.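 Results reflect a 48-hour exposure of cells in 96-well plates to compound at five concentrations. TGI is the concentration that stops growth completely.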

What was measured:
Assay in all cases: inhibition of tumour cell growth, NCI panel, 48 h
786-0 renal = tested on: 786-0 renal
ACHN renal = tested on: ACHN renal
HOP-92 NSCLC = tested on: HOP-92 NSCLC
HS 578T breast = tested on: HS 578T breast
KM12 colon = tested on: KM12 colon
MALME-3M melanoma = tested on: MALME-3M melanoma
MCF7 breast = tested on: MCF7 breast
MDA-N = tested on: MDA-N
NCI-H226 lung = tested on: NCI-H226 lung
SK-MEL-2 melanoma = tested on: SK-MEL-2 melanoma
SK-OV-3 ovarian = tested on: SK-OV-3 ovarian

Row | SMILES | TGI (786-0 renal) | TGI (ACHN renal) | TGI (HOP-92 NSCLC) [µM] | TGI (HS 578T breast) | TGI (KM12 colon) | TGI (MALME-3M melanoma) | TGI (MCF7 breast) | TGI (MDA-N) | TGI (NCI-H226 lung) | TGI (SK-MEL-2 melanoma) | TGI (SK-OV-3 ovarian)
1 | COC(=O)/C(=C\Nc1cccc(C)n1)S(=O)(=O)c1ccc(C)cc1 | > 100 µM | > 100 µM | > 100 | > 100 µM | 90.3 µM | > 100 µM | > 100 µM | > 100 µM | > 100 µM | > 100 µM | > 100 µM
2 | CC(O)c1cc2c(s1)C(=O)c1sccc1C2=O (centres undefined) | 0.538 µM | – | 2.06 | > 100 µM | 0.593 µM | 0.0486 µM | 1.89 µM | 0.0367 µM | 0.428 µM | 0.215 µM | 4.18 µM
3 | O=C(O)c1cc2ccccc2c(N=Nc2ccc(S(=O)(=O)Nc3nccs3)cc2)c1O | > 100 µM | > 100 µM | > 100 | > 100 µM | > 100 µM | > 100 µM | > 100 µM | > 100 µM | > 100 µM | > 100 µM | > 100 µM
4 | COC(=O)C(Cc1c(C2Nc3ccccc3C2CC(NC(=O)CNC(C)=O)C(=O)OC)[nH]c2ccccc12)NC(=O)CNC(C)=O (centres undefined) | > 100 µM | > 100 µM | > 100 | > 100 µM | > 100 µM | > 100 µM | > 100 µM | > 100 µM | > 100 µM | > 100 µM | > 100 µM
5 | O=C1CCC2(CC1CC(Sc1ccccc1)Sc1ccccc1)OCCO2 (centres undefined) | > 100 µM | > 100 µM | > 100 | 88.1 µM | > 100 µM | 84.7 µM | > 100 µM | > 100 µM | > 100 µM | > 100 µM | > 100 µM
6 | COC(=O)NCCc1[nH]nc2c1C(=O)C=C(N1CCOCC1)C2=O | > 100 µM | > 100 µM | > 100 | > 100 µM | > 100 µM | > 100 µM | > 100 µM | > 100 µM | > 100 µM | > 100 µM | > 100 µM
7 | O=C1NC(SSC2=NNC3(C(=O)N2)c2ccccc2-c2ccccc23)=NNC12c1ccccc1-c1ccccc12 | > 10 µM | > 10 µM | > 10 | > 10 µM | > 10 µM | > 10 µM | > 10 µM | > 10 µM | > 10 µM | > 10 µM | > 10 µM
8 | COC(=O)/C=C\n1c(C)cc(=O)[nH]c1=O | > 100 µM | > 100 µM | > 100 | > 100 µM | > 100 µM | > 100 µM | 89 µM | > 100 µM | > 100 µM | > 100 µM | > 100 µM
9 | Cn1c(=O)c(C(=O)Nc2nc(C34CC5CC(CC(C5)C3)C4)cs2)c(O)c2ccccc21 | > 100 µM | > 100 µM | 65.9 | > 100 µM | > 100 µM | > 100 µM | > 100 µM | > 100 µM | > 100 µM | – | –
10 | COC(=O)C1=C(C(=O)OC)C(C(=O)c2ccc(Br)cc2)N2N=C(c3ccc(Cl)cc3)C=CC12 (centres undefined) | > 100 µM | > 100 µM | > 100 | > 100 µM | > 100 µM | > 100 µM | > 100 µM | > 100 µM | > 100 µM | > 100 µM | > 100 µM
11 | NC(N)=N/N=C/c1nc2n(c1[N+](=O)[O-])CCS2 | > 100 µM | > 100 µM | > 100 | > 100 µM | > 100 µM | 30.8 µM | > 100 µM | > 100 µM | > 100 µM | 44.7 µM | > 100 µM
12 | O=[N+]([O-])C1CC/C(=N/O)c2nonc21 (centres undefined) | > 10 µM | > 10 µM | > 10 | > 10 µM | > 10 µM | > 10 µM | > 10 µM | > 10 µM | > 10 µM | – | –
13 | CCN(CC)CC1CCCCN1CC(=O)N1c2ccccc2NC(=O)CC1C (centres undefined) | > 100 µM | > 100 µM | > 100 | > 100 µM | > 100 µM | > 100 µM | > 100 µM | > 100 µM | > 100 µM | > 100 µM | > 100 µM
14 | COC(=O)c1c(O)ccc2c1c1c(n2Cc2ccccc2Cl)C(=O)c2ccccc2C1=O | 36.4 µM | 36.7 µM | 29.8 | 59 µM | 24.1 µM | 31.4 µM | 32.4 µM | 31.1 µM | 36.6 µM | 33.8 µM | 27.2 µM
15 | CC(=O)OCCOCn1c2c(c(=S)[nH]c1=O)CCC2 | > 100 µM | > 100 µM | > 100 | > 100 µM | > 100 µM | > 100 µM | > 100 µM | > 100 µM | > 100 µM | > 100 µM | –
16 | CCC(CON(C)c1ccccc1)(SC)SC | > 100 µM | > 100 µM | > 100 | > 100 µM | > 100 µM | > 100 µM | > 100 µM | > 100 µM | > 100 µM | > 100 µM | > 100 µM
17 | CN(CCn1cnc2c1c(=O)n(C)c(=O)n2C)C1CCCCC1 | > 100 µM | > 100 µM | > 100 | > 100 µM | > 100 µM | > 100 µM | > 100 µM | > 100 µM | > 100 µM | > 100 µM | > 100 µM
18 | O=C(c1ccccc1)N1CCN(C(=S)N(C(=O)c2ccccc2)c2ccccc2)C1=S | 5.31 µM | 7.2 µM | 20 | > 27.1 µM | 20.5 µM | 19.1 µM | 10 µM | 17.1 µM | 32 µM | 23.5 µM | 30.2 µM

Row | SMILES | TGI (786-0 renal) | TGI (ACHN renal) | TGI (HOP-92 NSCLC) [µM] | TGI (HS 578T breast) | TGI (KM12 colon) | TGI (MALME-3M melanoma) | TGI (MCF7 breast) | TGI (MDA-N) | TGI (NCI-H226 lung) | TGI (SK-MEL-2 melanoma) | TGI (SK-OV-3 ovarian)
19 | CCCCc1ccc(Nc2nc3c(ncn3C3CC(O)C(CN=[N+]=[N-])O3)c(=O)[nH]2)cc1 (centres undefined) | > 100 µM | > 100 µM | > 100 | > 100 µM | > 100 µM | > 100 µM | > 100 µM | > 100 µM | > 100 µM | > 100 µM | > 100 µM
20 | COc1ccc2nc3ccc(OC)cc3c(SCCO)c2c1 | > 60 µM | > 100 µM | > 100 | > 100 µM | > 63.8 µM | > 96.2 µM | > 62.3 µM | > 100 µM | > 100 µM | > 84 µM | > 100 µM
21 | CN(C)CCNC(=O)c1cccc2c(NCCN(C)C)c3ccccc3nc12 | 6.65 µM | 9.59 µM | 17.8 | 8.57 µM | 11.8 µM | 15.4 µM | 12.8 µM | 8.18 µM | 3.66 µM | 17.6 µM | 40.2 µM
22 | O=C(/C=C/c1ccc(O)c(O)c1)OCCCc1ccccc1 | 18.1 µM | 21.2 µM | 30.6 | 74.5 µM | – | 25.4 µM | 26.8 µM | 31.3 µM | 34.6 µM | 46.4 µM | 58.9 µM
23 | C[C@]12CC[C@H]3[C@@H](CC=C4C[C@@H](N5CCCC5)CC[C@@]43C)[C@@H]1C[C@H](N1CCOCC1)[C@@H]2O | > 100 µM | > 100 µM | > 100 | > 100 µM | > 100 µM | > 100 µM | > 10 µM | > 100 µM | > 100 µM | – | > 100 µM
24 | CC(C)/C(Cl)=N\OC(=O)Nc1ccccc1F | 29.9 µM | 24.9 µM | 4.06 | > 69.3 µM | 40.3 µM | 8.72 µM | 16 µM | 30.6 µM | 28.8 µM | 33.2 µM | 33.4 µM
25 | COC(=O)[C@]1(c2cc3ccccc3n2S(=O)(=O)c2ccccc2)CC2CN(C(C)=O)C1CC2=O (some centres undefined) | 2.97 µM | 3.97 µM | 16.5 | > 43.8 µM | 8.22 µM | 6.69 µM | 3.37 µM | 9.32 µM | 10.4 µM | 7.52 µM | 21.7 µM
26 | CCCCC(=O)NS(=NC(=O)c1ccccc1)C(Cl)(Cl)Cl (centres undefined) | > 100 µM | > 100 µM | > 100 | > 100 µM | > 100 µM | > 100 µM | > 100 µM | > 100 µM | > 100 µM | > 100 µM | > 100 µM
27 | O=CN1CCN(C(=O)c2ccc(Cl)cc2Cl)C1=S | > 100 µM | > 100 µM | 98.7 | > 100 µM | > 100 µM | > 100 µM | > 100 µM | > 100 µM | > 100 µM | > 100 µM | > 100 µM
28 | CCCCCCCCOC1C(O)C(O)C(O)C(O)C12CO2 (centres undefined) | > 100 µM | > 100 µM | – | > 100 µM | > 100 µM | > 100 µM | > 100 µM | > 100 µM | > 100 µM | > 100 µM | > 100 µM
29 | CC(=O)OC(/C=C/c1ccccc1)P1(=O)N(CC(C)(C)C)[C@@H]2CCCC[C@H]2N1CC(C)(C)C (some centres undefined) | 21.4 µM and 21.1 µM | 21.6 µM and 20.3 µM | 26.4 | 24.5 µM and 27.1 µM | 26.1 µM and 21.4 µM | 26.8 µM and 26.4 µM | 16 µM and 17.5 µM | 23.1 µM and 21 µM | 21.8 µM and 25.7 µM | 24.3 µM and 18.5 µM | 37.4 µM and 25.7 µM
30 | N/C(=N\S(=O)(=O)c1ccc(S(=O)(=O)c2ccccc2)s1)Nc1ccc(Cl)cc1 | 41.5 µM | 71.4 µM | 39.1 | 81.5 µM | > 100 µM | 47.9 µM | 35.6 µM | 39.1 µM | 88.6 µM | 31.6 µM | > 100 µM
31 | CC(=O)OCCCOCn1c(Cc2ccccc2)c(C)c(=O)[nH]c1=O | > 100 µM | > 100 µM | > 100 | > 100 µM | > 100 µM | > 100 µM | > 100 µM | > 100 µM | > 100 µM | > 100 µM | > 100 µM
32 | COC(=O)C1Cc2c(OC)ccc(OC)c2CC(C(=O)OC)C1=O (centres undefined) | > 100 µM | > 100 µM | > 100 | > 100 µM | > 100 µM | > 100 µM | > 100 µM | > 100 µM | > 100 µM | – | > 100 µM
33 | CC1(C)N=C(C(N)=O)c2ncn(N)c2N1 | > 100 µM | > 100 µM | > 100 | > 100 µM | > 100 µM | > 100 µM | > 100 µM | > 100 µM | > 100 µM | – | > 100 µM
34 | COC(=O)CCC(=O)NC1=C(Nc2ccc(OC)cc2)C(=O)c2ccccc2C1=O | 76.2 µM | 54.5 µM | 27 | 72.6 µM | 45.5 µM | 4.69 µM | 18.8 µM | 3.44 µM | 35.3 µM | 20.1 µM | 88.1 µM
35 | Nc1ncnc2c1nnn2C1C=CC(COS(N)(=O)=O)C1 (centres undefined) | 33.3 µM | 49.1 µM | – | 8.3 µM | 86.3 µM | > 100 µM | > 100 µM | 19 µM | 42.1 µM | 21.4 µM | > 100 µM
36 | S=C(NC1=NCC(CN2CCN(c3ccccc3)CC2)O1)Nc1ccccc1 (centres undefined) | > 100 µM | > 100 µM | > 100 | > 100 µM | > 100 µM | > 100 µM | > 100 µM | > 100 µM | > 100 µM | > 100 µM | > 100 µM
